From ChEMBL document CHEMBL1201862, “PubChem BioAssay data set” (2004)
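Results reflect a 48-hour exposure of cells in 96-well plates to compound at five concentrations. GI50: concentration for 50% inhibition of growth.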 Calls of active or inactive are those of the source. Cut-off read from the data, not from the text of the source: active = GI50 up to about 1.1 µM and inactive = higher.

Experiments:
Test in all cases: growth of human tumour cells (NCI), 48 h
U-251 = test system: U-251
A549 = test system: A549
SK-MEL-5 = test system: SK-MEL-5
OVCAR-3 = test system: OVCAR-3
COLO 205 = test system: COLO 205
ACHN = test system: ACHN
HT-29 = test system: HT-29
Hs-578T = test system: Hs-578T
HOP-92 = test system: HOP-92
BT-549 = test system: BT-549
OVCAR-8 = test system: OVCAR-8
Malme-3M = test system: Malme-3M
M14 = test system: M14
NCI-H522 = test system: NCI-H522
SK-OV-3 = test system: SK-OV-3
EKVX = test system: EKVX
KM12 = test system: KM12
SF-295 = test system: SF-295
HOP-62 = test system: HOP-62
SK-MEL-28 = test system: SK-MEL-28
SF-268 = test system: SF-268
HCT-116 = test system: HCT-116
SF-539 = test system: SF-539
DU-145 = test system: DU-145
NCI-H23 = test system: NCI-H23
A498 = test system: A498
SNB-75 = test system: SNB-75
OVCAR-5 = test system: OVCAR-5
786-0 = test system: 786-0
SNB-19 = test system: SNB-19
NCI/ADR-RES = test system: NCI/ADR-RES
LOX IMVI = test system: LOX IMVI
UACC-62 = test system: UACC-62
K562 = test system: K562
RPMI-8226 = test system: RPMI-8226
MDA-MB-231 = test system: MDA-MB-231
PC-3 = test system: PC-3
RXF 393 = test system: RXF 393
TK-10 = test system: TK-10
SK-MEL-2 = test system: SK-MEL-2
MCF7 = test system: MCF7
SR = test system: SR
IGROV-1 = test system: IGROV-1
HL-60 = test system: HL-60
SN12C = test system: SN12C
MOLT-4 = test system: MOLT-4
HCT-15 = test system: HCT-15
NCI-H226 = test system: NCI-H226
NCI-H460 = test system: NCI-H460
T47D = test system: T47D
UACC-257 = test system: UACC-257
SW-620 = test system: SW-620
CAKI-1 = test system: CAKI-1
MDA-N = test system: MDA-N
CCRF-CEM = test system: CCRF-CEM
MDA-MB-435 = test system: MDA-MB-435
UO-31 = test system: UO-31
HCC 2998 = test system: HCC 2998
OVCAR-4 = test system: OVCAR-4

Measured: GI50

O=C(O)C(=Cc1ccnc2ccccc12)C(=O)O
inactive: U-251 > 100 µM | A549 > 100 µM | SK-MEL-5 > 100 µM | OVCAR-3 > 100 µM | COLO 205 > 100 µM | ACHN > 100 µM | HT-29 > 100 µM | Hs-578T > 100 µM | HOP-92 > 100 µM | BT-549 > 100 µM | OVCAR-8 > 100 µM | Malme-3M > 100 µM | M14 > 100 µM | NCI-H522 > 100 µM | SK-OV-3 > 100 µM | EKVX > 100 µM | KM12 > 100 µM | SF-295 > 100 µM | HOP-62 > 100 µM | SK-MEL-28 > 100 µM | SF-268 > 100 µM | HCT-116 > 100 µM | SF-539 > 100 µM | DU-145 > 100 µM | NCI-H23 > 100 µM | A498 > 100 µM | SNB-75 > 100 µM | OVCAR-5 > 100 µM | 786-0 > 100 µM | SNB-19 > 100 µM | NCI/ADR-RES > 100 µM | LOX IMVI > 100 µM | UACC-62 > 100 µM | K562 > 100 µM | RPMI-8226 > 100 µM | MDA-MB-231 > 100 µM | PC-3 > 100 µM | RXF 393 > 100 µM | TK-10 > 100 µM | SK-MEL-2 > 100 µM | MCF7 > 100 µM | SR > 100 µM | IGROV-1 > 100 µM | HL-60 > 100 µM | SN12C > 100 µM | MOLT-4 > 100 µM | NCI-H226 > 100 µM | NCI-H460 > 100 µM | T47D > 100 µM | UACC-257 > 100 µM | SW-620 > 100 µM | CAKI-1 > 100 µM | MDA-N > 100 µM | CCRF-CEM > 100 µM
> 100 µM: HCT-15

C(=C\N1CCCCC1)/c1nnnn1-c1ccccc1
inactive: U-251 21.1 µM | A549 > 100 µM | SK-MEL-5 23.3 µM | OVCAR-3 30.5 µM | COLO 205 > 100 µM | ACHN 37.9 µM | HT-29 84.5 µM | MDA-MB-435 22.2 µM | Hs-578T 17 µM | HOP-92 66.1 µM | BT-549 33 µM | OVCAR-8 26.4 µM | Malme-3M 55.5 µM | M14 14.1 µM | NCI-H522 47 µM | SK-OV-3 25.6 µM | EKVX 23.5 µM | KM12 56.8 µM | SF-295 21.9 µM | HOP-62 54 µM | SK-MEL-28 44.7 µM | SF-268 27 µM | UO-31 30 µM | HCT-116 25.4 µM | SF-539 25.3 µM | DU-145 > 100 µM | NCI-H23 25.2 µM | A498 54.1 µM | SNB-75 19.6 µM | OVCAR-5 42.1 µM | 786-0 43.8 µM | SNB-19 32.6 µM | NCI/ADR-RES 20.5 µM | LOX IMVI 17.6 µM | UACC-62 15.6 µM | HCC 2998 90.6 µM | K562 30.7 µM | RPMI-8226 21.1 µM | MDA-MB-231 20.8 µM | PC-3 27.7 µM | RXF 393 13.9 µM | TK-10 43.1 µM | SR 23.4 µM | IGROV-1 27.7 µM | HL-60 15.8 µM | SN12C 26.2 µM | MOLT-4 17.4 µM | NCI-H226 37.2 µM | NCI-H460 73.8 µM | T47D 13.5 µM | UACC-257 56.2 µM | OVCAR-4 33.4 µM | SW-620 34.8 µM | CAKI-1 12.4 µM | MDA-N 32.3 µM | CCRF-CEM 19.6 µM
23.6 µM: HCT-15
